Data from US20240327393A1 (SIRONAX LTD., priority 2021, published 2024).

Test system: HT-1080 (ATCC, CCL-121) cells
Assay: HT-1080 cell viability assay with ferroptosis inducer RSL3 (Cell Titer-Glo)
Format: cell-based
Settings: Homo sapiens; HT-1080 cells treated with RSL3; 3-fold, 10-point dilution, 1.1 μM highest concentration; Table 3; read-out: EC50 (nM), ferroptosis inhibitory activity
How it was run: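 HT-1080 cells (6000 per well) were cultured overnight at 37 °C, then co-treated with RSL3 and compound in a 3-fold, 10-point series topping at 1.1 μM. Viability was read by CellTiter-Glo luminescence and normalized to untreated controls. EC50 came from a sigmoidal non-linear regression fit.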

| Structure (SMILES) | EC50 |
| --- | --- |
| Cc1cc(N2CC(O)(C(F)(F)F)C2)ccc1Nc1ccc2c(c1)ncn2C [Compound 651, 1-[3-methyl-4-[(1-methylbenzimidazol-5-yl)amino]phenyl]-3-(trifluoromethyl)azetidin-3-ol] | 0.1 to 100 nM |
| Cc1cc(N2CC(OC(F)F)C2)ccc1Nc1ccc2c(c1)OCC(=O)N2 [Compound 652, 7-[4-[3-(difluoromethoxy)azetidin-1-yl]-2-methyl-anilino]-4H-1,4-benzoxazin-3-one] | 0.1 to 100 nM |
| Cc1cc(OC(F)F)ccc1Nc1ccc2c(c1)OCC(=O)N2 [Compound 653, 7-[4-(difluoromethoxy)-2-methyl-anilino]-4H-1,4-benzoxazin-3-one] | 0.1 to 100 nM |
| Cc1cc(N2CCC(C(F)F)CC2)ccc1Nc1ccc2c(c1)OCC(=O)N2 [Compound 654, 7-[4-[4-(difluoromethyl)-1-piperidyl]-2-methyl-anilino]-4H-1,4-benzoxazin-3-one] | 0.1 to 100 nM |
| Cc1cc(N2CC(C(F)F)C2)ccc1Nc1ccc2c(c1)OCC(=O)N2 [Compound 655, 7-[4-[3-(difluoromethyl)azetidin-1-yl]-2-methyl-anilino]-4H-1,4-benzoxazin-3-one] | 0.1 to 100 nM |
| CC1=NCC(=O)Nc2ccc(Nc3ccc(N4CCC(C(F)(F)F)CC4)cc3C)cc21 [Compound 656, 5-methyl-7-[2-methyl-4-[4-(trifluoromethyl)-1-piperidyl]anilino]-1,3-dihydro-1,4-benzodiazepin-2-one] | 0.1 to 100 nM |
| Cc1cc(N2CC(OC(F)(F)F)C2)ccc1Nc1ccc2c(c1)OCC(O)C(=O)N2 (centres unmarked) [Compound 657, 3-hydroxy-8-[2-methyl-4-[3-(trifluoromethoxy)azetidin-1-yl]anilino]-3,5-dihydro-2H-1,5-benzoxazepin-4-one] | 0.1 to 100 nM |
| Cc1cc(N2CC(OC(F)F)C2)ccc1Nc1ccc2c(c1)OCC(O)C(=O)N2 (centres unmarked) [Compound 658, 8-[4-[3-(difluoromethoxy)azetidin-1-yl]-2-methyl-anilino]-3-hydroxy-3,5-dihydro-2H-1,5-benzoxazepin-4-one] | 0.1 to 100 nM |
| CCC(C)(C)Nc1ccc(Nc2ccc3c(c2)OCC(=O)N3)c(C)c1 [Compound 659, 7-[4-(1,1-dimethylpropylamino)-2-methyl-anilino]-4H-1,4-benzoxazin-3-one] | 0.1 to 100 nM |

Results, then the compound that gave them:

| EC50 | Structure (SMILES) |
| --- | --- |
| 0.1 to 100 nM | Cc1cc(N2CCC(C(F)(F)F)CC2)ccc1Nc1ccc2c(c1)NCCC(=O)N2 [Compound 643, 7-((2-methyl-4-(4-(trifluoromethyl)piperidin-1-yl)phenyl)amino)-1,3,4,5-tetrahydro-2H-benzo[b][1,4]diazepin-2-one] |
| 0.1 to 100 nM | Cc1cc(N2CCC(C(F)(F)F)CC2)ccc1Nc1ccc2c(c1)C(=O)NCC(=O)N2 [Compound 644, 7-((2-methyl-4-(4-(trifluoromethyl)piperidin-1-yl)phenyl)amino)-3,4-dihydro-1H-benzo[e][1,4]diazepine-2,5-dione] |
| 0.1 to 100 nM | COC1(C(F)(F)F)CN(c2ccc(Nc3ccc4c(c3)OCCC(=O)N4)c(C)c2)C1 [Compound 645, 8-[4-[3-methoxy-3-(trifluoromethyl)azetidin-1-yl]-2-methyl-anilino]-3,5-dihydro-2H-1,5-benzoxazepin-4-one] |
| 0.1 to 100 nM | Cc1cc(N2CCC(C(F)(F)F)CC2)ccc1Nc1ccc2c(c1)OCC(O)C(=O)N2 (centres unmarked) [Compound 646, 3-hydroxy-8-((2-methyl-4-(4-(trifluoromethyl)piperidin-1-yl)phenyl)amino)-2,3-dihydrobenzo[b][1,4]oxazepin-4(5H)-one] |
| 0.1 to 100 nM | COC1(C(F)(F)F)CCN(c2ccc(Nc3ccc4c(c3)OCCC(=O)N4)c(C)c2)C1 (centres unmarked) [Compound 647, 8-((4-(3-methoxy-3-(trifluoromethyl)pyrrolidin-1-yl)-2-methylphenyl)amino)-2,3-dihydrobenzo[b][1,4]oxazepin-4(5H)-one] |
| 0.1 to 100 nM | Cc1cc(N2C[C@@H](C)O[C@@H](C)C2)ccc1Nc1ccc2cn[nH]c2c1 [Compound 648, N-(2-methyl-4-((2S,6R)-2,6-dimethylmorpholino)phenyl)-1H-indazol-6-amine] |
| 0.1 to 100 nM | Cc1cc(N2CC(O)(C(F)(F)F)C2)ccc1Nc1ccc2c(c1)OCCC(=O)N2 [Compound 649, 8-[4-[3-hydroxy-3-(trifluoromethyl)azetidin-1-yl]-2-methyl-anilino]-3,5-dihydro-2H-1,5-benzoxazepin-4-one] |
| 0.1 to 100 nM | Cc1cc(N2CCC(C(F)(F)F)CC2)ccc1Nc1ccc2c(c1)COCC(=O)N2 [Compound 650, 7-((2-methyl-4-(4-(trifluoromethyl)piperidin-1-yl)phenyl)amino)-1,5-dihydrobenzo[e][1,4]oxazepin-2(3H)-one] |
